# Laboratory results reported in ChEMBL document CHEMBL1909046, “DrugMatrix in vitro pharmacology data”.
# Target: T1, Neuropeptide Y receptor type 2 (Homo sapiens, UniProt P49146); also: in other assays of this panel Not Active means under 50% inhibition at 10 µM
# T1 sequence (P49146 whole entry): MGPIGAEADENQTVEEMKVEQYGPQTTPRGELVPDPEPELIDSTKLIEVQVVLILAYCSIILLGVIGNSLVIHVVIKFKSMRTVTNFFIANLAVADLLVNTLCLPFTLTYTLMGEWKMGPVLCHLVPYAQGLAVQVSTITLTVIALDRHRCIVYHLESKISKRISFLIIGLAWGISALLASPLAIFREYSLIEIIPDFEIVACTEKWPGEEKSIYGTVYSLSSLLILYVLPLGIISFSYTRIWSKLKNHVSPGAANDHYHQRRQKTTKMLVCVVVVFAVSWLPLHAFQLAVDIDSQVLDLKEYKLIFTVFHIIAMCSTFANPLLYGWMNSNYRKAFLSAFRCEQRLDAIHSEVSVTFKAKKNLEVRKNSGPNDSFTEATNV
# Assay type: cell membranes, Membrane
# Conditions: kan-ts
row,SMILES,IC50
1,CCCCC(=O)N(Cc1ccc(-c2ccccc2-c2nnn[nH]2)cc1)[C@H](C(=O)O)C(C)C,Not Active
2,O=C(O)COc1ccc(C(=O)c2cccs2)c(Cl)c1Cl,Not Active
3,CN1[C@@H]2CC[C@H]1C[C@@H](OC(c1ccccc1)c1ccccc1)C2 [BENZTROPINE],Not Active
4,C[C@@](Cc1ccc(O)c(O)c1)(NN)C(=O)O.O [CARBIDOPA],Not Active
5,CN1CCN(C2=Nc3cc(Cl)ccc3Nc3ccccc32)CC1 [CLOZAPINE],Not Active
6,CC(C)NC[C@@H](O)COc1cccc2ccccc12 [DEXPROPRANOLOL],Not Active
7,CC(C)NC[C@H](O)COc1cccc2ccccc12 [LEVOPROPRANOLOL],Not Active
8,"O=C(O)CCCCC1CCSS1 (stereo not drawn) [LIPOIC ACID, ALPHA]",Not Active
9,CN(C)C(=O)C(CCN1CCC(O)(c2ccc(Cl)cc2)CC1)(c1ccccc1)c1ccccc1 [LOPERAMIDE],Not Active
10,Clc1ccc(COC(Cn2ccnc2)c2ccc(Cl)cc2Cl)c(Cl)c1 (configuration not stated) [MICONAZOLE],Not Active
11,Oc1ccc2c3c1O[C@H]1[C@@H](O)CC[C@@]4(O)[C@@H](C2)N(CC2CCC2)CC[C@]314 [NALBUPHINE],Not Active
12,C[C@]12C=CC(=O)C=C1CC[C@@H]1[C@@H]2C(=O)C[C@@]2(C)[C@H]1CC[C@]2(O)C(=O)CO [PREDNISONE],Not Active
13,OCCOCCN1CCN(C2=Nc3ccccc3Sc3ccccc32)CC1 [QUETIAPINE],Not Active
14,COC(=O)[C@H]1[C@H]2C[C@@H]3c4[nH]c5cc(OC)ccc5c4CCN3C[C@H]2C[C@@H](OC(=O)c2cc(OC)c(OC)c(OC)c2)[C@@H]1OC [RESERPINE],Not Active

# Target: T2, D(4) dopamine receptor (Homo sapiens, UniProt P21917)
# T2 sequence (P21917 whole entry): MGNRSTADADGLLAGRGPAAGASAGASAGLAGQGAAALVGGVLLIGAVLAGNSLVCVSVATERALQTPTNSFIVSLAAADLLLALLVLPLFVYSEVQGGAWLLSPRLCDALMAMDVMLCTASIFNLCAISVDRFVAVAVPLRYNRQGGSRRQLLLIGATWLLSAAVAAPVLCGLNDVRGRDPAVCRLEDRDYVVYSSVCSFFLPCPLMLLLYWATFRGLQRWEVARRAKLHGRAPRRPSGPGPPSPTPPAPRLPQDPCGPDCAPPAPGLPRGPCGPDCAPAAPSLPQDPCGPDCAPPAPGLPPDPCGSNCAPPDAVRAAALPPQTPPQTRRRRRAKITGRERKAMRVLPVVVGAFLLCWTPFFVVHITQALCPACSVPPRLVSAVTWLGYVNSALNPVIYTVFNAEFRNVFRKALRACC
# Assay: DRUGMATRIX: Dopamine D4.2 radioligand binding (ligand: [3H] Spiperone)
# Assay type: cell membranes, CHO-K1, Membrane
# Conditions: Not Active = under 50% inhibition at 10 µM; read-out: IC50
row,SMILES,IC50 [µM]
1,Clc1ccc(COC(Cn2ccnc2)c2ccc(Cl)cc2Cl)c(Cl)c1 (configuration not stated) [MICONAZOLE],15.3

# Same assay, conditions: Not Active = under 50% inhibition at 10 µM; read-out: Ki
row,SMILES,Ki [µM]
1,Clc1ccc(COC(Cn2ccnc2)c2ccc(Cl)cc2Cl)c(Cl)c1 (configuration not stated) [MICONAZOLE],5.35

# Same assay, conditions: cho-k1; Not Active = under 50% inhibition at 10 µM
row,SMILES,IC50
1,CCCCC(=O)N(Cc1ccc(-c2ccccc2-c2nnn[nH]2)cc1)[C@H](C(=O)O)C(C)C,Not Active
2,O=C(O)COc1ccc(C(=O)c2cccs2)c(Cl)c1Cl,Not Active
3,CN1[C@@H]2CC[C@H]1C[C@@H](OC(c1ccccc1)c1ccccc1)C2 [BENZTROPINE],Not Active
4,C[C@@](Cc1ccc(O)c(O)c1)(NN)C(=O)O.O [CARBIDOPA],Not Active
5,CC(C)NC[C@@H](O)COc1cccc2ccccc12 [DEXPROPRANOLOL],Not Active
6,CC(C)NC[C@H](O)COc1cccc2ccccc12 [LEVOPROPRANOLOL],Not Active
7,"O=C(O)CCCCC1CCSS1 (stereo not drawn) [LIPOIC ACID, ALPHA]",Not Active
8,CN(C)C(=O)C(CCN1CCC(O)(c2ccc(Cl)cc2)CC1)(c1ccccc1)c1ccccc1 [LOPERAMIDE],Not Active
9,Oc1ccc2c3c1O[C@H]1[C@@H](O)CC[C@@]4(O)[C@@H](C2)N(CC2CCC2)CC[C@]314 [NALBUPHINE],Not Active
10,C[C@]12C=CC(=O)C=C1CC[C@@H]1[C@@H]2C(=O)C[C@@]2(C)[C@H]1CC[C@]2(O)C(=O)CO [PREDNISONE],Not Active
11,OCCOCCN1CCN(C2=Nc3ccccc3Sc3ccccc32)CC1 [QUETIAPINE],Not Active
12,COC(=O)[C@H]1[C@H]2C[C@@H]3c4[nH]c5cc(OC)ccc5c4CCN3C[C@H]2C[C@@H](OC(=O)c2cc(OC)c(OC)c(OC)c2)[C@@H]1OC [RESERPINE],Not Active

# Target: Delta-type opioid receptor (Homo sapiens, UniProt P41143); also: in other assays of this panel Not Active means under 50% inhibition at 10 µM
# Assay type: cell membranes, HEK293, Membrane
# Conditions: hek293
# Sequence of Delta-type opioid receptor (P41143 whole entry): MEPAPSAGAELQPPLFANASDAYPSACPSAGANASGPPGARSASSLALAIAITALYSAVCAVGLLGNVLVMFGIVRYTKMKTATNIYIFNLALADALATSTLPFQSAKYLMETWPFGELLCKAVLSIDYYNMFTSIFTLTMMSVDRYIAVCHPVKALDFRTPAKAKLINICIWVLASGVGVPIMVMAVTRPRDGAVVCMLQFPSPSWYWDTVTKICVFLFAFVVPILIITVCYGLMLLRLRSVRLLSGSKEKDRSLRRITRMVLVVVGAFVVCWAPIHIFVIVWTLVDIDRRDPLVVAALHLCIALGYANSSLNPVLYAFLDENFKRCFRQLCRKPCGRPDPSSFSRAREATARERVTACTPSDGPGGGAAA
row,SMILES,IC50
1,CCCCC(=O)N(Cc1ccc(-c2ccccc2-c2nnn[nH]2)cc1)[C@H](C(=O)O)C(C)C,Not Active
2,O=C(O)COc1ccc(C(=O)c2cccs2)c(Cl)c1Cl,Not Active
3,CN1[C@@H]2CC[C@H]1C[C@@H](OC(c1ccccc1)c1ccccc1)C2 [BENZTROPINE],Not Active
4,C[C@@](Cc1ccc(O)c(O)c1)(NN)C(=O)O.O [CARBIDOPA],Not Active
5,CN1CCN(C2=Nc3cc(Cl)ccc3Nc3ccccc32)CC1 [CLOZAPINE],Not Active
6,CC(C)NC[C@@H](O)COc1cccc2ccccc12 [DEXPROPRANOLOL],Not Active
7,CC(C)NC[C@H](O)COc1cccc2ccccc12 [LEVOPROPRANOLOL],Not Active
8,"O=C(O)CCCCC1CCSS1 (stereo not drawn) [LIPOIC ACID, ALPHA]",Not Active
9,C[C@]12C=CC(=O)C=C1CC[C@@H]1[C@@H]2C(=O)C[C@@]2(C)[C@H]1CC[C@]2(O)C(=O)CO [PREDNISONE],Not Active
10,OCCOCCN1CCN(C2=Nc3ccccc3Sc3ccccc32)CC1 [QUETIAPINE],Not Active
11,COC(=O)[C@H]1[C@H]2C[C@@H]3c4[nH]c5cc(OC)ccc5c4CCN3C[C@H]2C[C@@H](OC(=O)c2cc(OC)c(OC)c(OC)c2)[C@@H]1OC [RESERPINE],Not Active

# Same assay, conditions: read-out: IC50
row,SMILES,IC50 [µM]
1,Clc1ccc(COC(Cn2ccnc2)c2ccc(Cl)cc2Cl)c(Cl)c1 (configuration not stated) [MICONAZOLE],3.39

# Same assay, conditions: read-out: Ki
row,SMILES,Ki [µM]
1,Clc1ccc(COC(Cn2ccnc2)c2ccc(Cl)cc2Cl)c(Cl)c1 (configuration not stated) [MICONAZOLE],1.19

# Target: Cannabinoid receptor 1 (Homo sapiens, UniProt P21554); also: in other assays of this panel Not Active means under 50% inhibition at 10 µM
# Assay type: cell membranes, Chem-1, Membrane
# Conditions: chem-1
# Sequence of Cannabinoid receptor 1 (P21554 whole entry): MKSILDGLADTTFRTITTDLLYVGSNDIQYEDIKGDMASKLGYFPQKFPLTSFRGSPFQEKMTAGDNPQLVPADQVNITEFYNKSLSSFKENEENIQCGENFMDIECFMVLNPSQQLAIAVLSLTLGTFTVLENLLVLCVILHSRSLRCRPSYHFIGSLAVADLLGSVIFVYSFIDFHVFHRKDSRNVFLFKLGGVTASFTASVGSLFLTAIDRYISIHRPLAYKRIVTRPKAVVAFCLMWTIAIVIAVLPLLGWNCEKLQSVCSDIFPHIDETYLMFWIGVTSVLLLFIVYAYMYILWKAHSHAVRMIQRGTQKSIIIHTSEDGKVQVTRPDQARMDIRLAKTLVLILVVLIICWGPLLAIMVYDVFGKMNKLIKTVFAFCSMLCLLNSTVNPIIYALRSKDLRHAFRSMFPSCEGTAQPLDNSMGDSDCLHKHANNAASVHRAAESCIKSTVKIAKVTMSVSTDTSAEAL
row,SMILES,IC50
1,CCCCC(=O)N(Cc1ccc(-c2ccccc2-c2nnn[nH]2)cc1)[C@H](C(=O)O)C(C)C,Not Active
2,O=C(O)COc1ccc(C(=O)c2cccs2)c(Cl)c1Cl,Not Active
3,CN1[C@@H]2CC[C@H]1C[C@@H](OC(c1ccccc1)c1ccccc1)C2 [BENZTROPINE],Not Active
4,C[C@@](Cc1ccc(O)c(O)c1)(NN)C(=O)O.O [CARBIDOPA],Not Active
5,CN1CCN(C2=Nc3cc(Cl)ccc3Nc3ccccc32)CC1 [CLOZAPINE],Not Active
6,CC(C)NC[C@@H](O)COc1cccc2ccccc12 [DEXPROPRANOLOL],Not Active
7,CC(C)NC[C@H](O)COc1cccc2ccccc12 [LEVOPROPRANOLOL],Not Active
8,"O=C(O)CCCCC1CCSS1 (stereo not drawn) [LIPOIC ACID, ALPHA]",Not Active
9,CN(C)C(=O)C(CCN1CCC(O)(c2ccc(Cl)cc2)CC1)(c1ccccc1)c1ccccc1 [LOPERAMIDE],Not Active
10,Oc1ccc2c3c1O[C@H]1[C@@H](O)CC[C@@]4(O)[C@@H](C2)N(CC2CCC2)CC[C@]314 [NALBUPHINE],Not Active
11,C[C@]12C=CC(=O)C=C1CC[C@@H]1[C@@H]2C(=O)C[C@@]2(C)[C@H]1CC[C@]2(O)C(=O)CO [PREDNISONE],Not Active
12,OCCOCCN1CCN(C2=Nc3ccccc3Sc3ccccc32)CC1 [QUETIAPINE],Not Active
13,COC(=O)[C@H]1[C@H]2C[C@@H]3c4[nH]c5cc(OC)ccc5c4CCN3C[C@H]2C[C@@H](OC(=O)c2cc(OC)c(OC)c(OC)c2)[C@@H]1OC [RESERPINE],Not Active

# Same assay, conditions: read-out: IC50
row,SMILES,IC50 [µM]
1,Clc1ccc(COC(Cn2ccnc2)c2ccc(Cl)cc2Cl)c(Cl)c1 (configuration not stated) [MICONAZOLE],21

# Same assay, conditions: read-out: Ki
row,SMILES,Ki [µM]
1,Clc1ccc(COC(Cn2ccnc2)c2ccc(Cl)cc2Cl)c(Cl)c1 (configuration not stated) [MICONAZOLE],16.6

# Target: Tyrosine-protein kinase Lck (Homo sapiens, UniProt P06239)
# Assay: DRUGMATRIX: Protein Tyrosine Kinase, LCK enzyme inhibition (substrate: Poly(Glu:Tyr))
# Assay type: cell-based, Insect cells
# Conditions: Not Active = under 50% inhibition at 10 µM; read-out: IC50
# Sequence of Tyrosine-protein kinase Lck (P06239 whole entry): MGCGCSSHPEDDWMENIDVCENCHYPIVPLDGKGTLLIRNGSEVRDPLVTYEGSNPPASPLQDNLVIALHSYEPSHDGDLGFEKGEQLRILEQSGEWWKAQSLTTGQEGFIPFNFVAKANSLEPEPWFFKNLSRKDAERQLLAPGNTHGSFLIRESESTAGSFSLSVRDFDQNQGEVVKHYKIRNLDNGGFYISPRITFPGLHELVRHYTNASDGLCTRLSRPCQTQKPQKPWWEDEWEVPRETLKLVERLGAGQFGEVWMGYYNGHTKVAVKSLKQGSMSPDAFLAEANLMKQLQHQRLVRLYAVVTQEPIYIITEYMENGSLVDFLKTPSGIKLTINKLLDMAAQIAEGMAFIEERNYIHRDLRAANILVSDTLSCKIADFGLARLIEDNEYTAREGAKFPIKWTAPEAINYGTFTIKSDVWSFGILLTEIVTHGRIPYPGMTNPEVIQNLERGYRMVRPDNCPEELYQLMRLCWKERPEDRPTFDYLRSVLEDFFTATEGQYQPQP
row,SMILES,IC50 [µM]
1,C[C@@](Cc1ccc(O)c(O)c1)(NN)C(=O)O.O [CARBIDOPA],6.8

# Same assay, conditions: insect cells; Not Active = under 50% inhibition at 10 µM
row,SMILES,IC50
1,CCCCC(=O)N(Cc1ccc(-c2ccccc2-c2nnn[nH]2)cc1)[C@H](C(=O)O)C(C)C,Not Active
2,O=C(O)COc1ccc(C(=O)c2cccs2)c(Cl)c1Cl,Not Active
3,CN1[C@@H]2CC[C@H]1C[C@@H](OC(c1ccccc1)c1ccccc1)C2 [BENZTROPINE],Not Active
4,CN1CCN(C2=Nc3cc(Cl)ccc3Nc3ccccc32)CC1 [CLOZAPINE],Not Active
5,CC(C)NC[C@@H](O)COc1cccc2ccccc12 [DEXPROPRANOLOL],Not Active
6,CC(C)NC[C@H](O)COc1cccc2ccccc12 [LEVOPROPRANOLOL],Not Active
7,"O=C(O)CCCCC1CCSS1 (stereo not drawn) [LIPOIC ACID, ALPHA]",Not Active
8,CN(C)C(=O)C(CCN1CCC(O)(c2ccc(Cl)cc2)CC1)(c1ccccc1)c1ccccc1 [LOPERAMIDE],Not Active
9,Clc1ccc(COC(Cn2ccnc2)c2ccc(Cl)cc2Cl)c(Cl)c1 (configuration not stated) [MICONAZOLE],Not Active
10,Oc1ccc2c3c1O[C@H]1[C@@H](O)CC[C@@]4(O)[C@@H](C2)N(CC2CCC2)CC[C@]314 [NALBUPHINE],Not Active
11,C[C@]12C=CC(=O)C=C1CC[C@@H]1[C@@H]2C(=O)C[C@@]2(C)[C@H]1CC[C@]2(O)C(=O)CO [PREDNISONE],Not Active
12,OCCOCCN1CCN(C2=Nc3ccccc3Sc3ccccc32)CC1 [QUETIAPINE],Not Active
13,COC(=O)[C@H]1[C@H]2C[C@@H]3c4[nH]c5cc(OC)ccc5c4CCN3C[C@H]2C[C@@H](OC(=O)c2cc(OC)c(OC)c(OC)c2)[C@@H]1OC [RESERPINE],Not Active

# Target: Estrogen receptor beta (Homo sapiens, UniProt Q92731); also: in other assays of this panel Not Active means under 50% inhibition at 10 µM
# Conditions: sf9
# Sequence of Estrogen receptor beta (Q92731 whole entry): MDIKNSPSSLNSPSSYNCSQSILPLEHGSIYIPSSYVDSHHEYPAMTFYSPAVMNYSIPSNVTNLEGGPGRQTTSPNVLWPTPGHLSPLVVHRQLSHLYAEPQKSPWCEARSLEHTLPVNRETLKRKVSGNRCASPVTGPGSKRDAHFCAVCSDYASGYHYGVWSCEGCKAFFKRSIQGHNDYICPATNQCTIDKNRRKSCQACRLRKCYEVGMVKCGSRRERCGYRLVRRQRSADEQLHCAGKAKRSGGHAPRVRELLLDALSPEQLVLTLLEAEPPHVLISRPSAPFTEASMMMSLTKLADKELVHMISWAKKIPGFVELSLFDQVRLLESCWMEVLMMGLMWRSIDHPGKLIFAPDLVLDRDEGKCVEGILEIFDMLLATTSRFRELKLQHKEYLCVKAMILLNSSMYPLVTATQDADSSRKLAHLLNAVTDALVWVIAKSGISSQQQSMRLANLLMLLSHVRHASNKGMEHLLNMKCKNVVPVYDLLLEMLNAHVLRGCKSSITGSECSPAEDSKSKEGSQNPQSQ
row,SMILES,IC50
1,CCCCC(=O)N(Cc1ccc(-c2ccccc2-c2nnn[nH]2)cc1)[C@H](C(=O)O)C(C)C,Not Active
2,O=C(O)COc1ccc(C(=O)c2cccs2)c(Cl)c1Cl,Not Active
3,CN1[C@@H]2CC[C@H]1C[C@@H](OC(c1ccccc1)c1ccccc1)C2 [BENZTROPINE],Not Active
4,CN1CCN(C2=Nc3cc(Cl)ccc3Nc3ccccc32)CC1 [CLOZAPINE],Not Active
5,CC(C)NC[C@@H](O)COc1cccc2ccccc12 [DEXPROPRANOLOL],Not Active
6,CC(C)NC[C@H](O)COc1cccc2ccccc12 [LEVOPROPRANOLOL],Not Active
7,"O=C(O)CCCCC1CCSS1 (stereo not drawn) [LIPOIC ACID, ALPHA]",Not Active
8,CN(C)C(=O)C(CCN1CCC(O)(c2ccc(Cl)cc2)CC1)(c1ccccc1)c1ccccc1 [LOPERAMIDE],Not Active
9,Clc1ccc(COC(Cn2ccnc2)c2ccc(Cl)cc2Cl)c(Cl)c1 (configuration not stated) [MICONAZOLE],Not Active
10,Oc1ccc2c3c1O[C@H]1[C@@H](O)CC[C@@]4(O)[C@@H](C2)N(CC2CCC2)CC[C@]314 [NALBUPHINE],Not Active
11,C[C@]12C=CC(=O)C=C1CC[C@@H]1[C@@H]2C(=O)C[C@@]2(C)[C@H]1CC[C@]2(O)C(=O)CO [PREDNISONE],Not Active
12,OCCOCCN1CCN(C2=Nc3ccccc3Sc3ccccc32)CC1 [QUETIAPINE],Not Active
